The subject of assay [1] is purified Rhodococcus sp. FZ4 nitrile hydratase. It is filed as biochemical. The procedure: A solution comprising nitrile hydratase solution (0.695 μmol/min; 0.025 ml), potassium phosphate buffer (0.1 M; pH 7.0; 0.475 ml), distilled water (0.150 ml) and different potential inhibitors (0.100 ml) was incubated at 20° C. for 5 min. This was followed by the addition of 3-cyanopyridine (1.0 M; 0.250 ml). The concentration of the inhibitors in the reaction mixture was 1.0 mM. The reaction mixture was incubated at 20° C. for 10 min. The reaction was stopped by adding MeOH. The amount of nicotinamide produced was determined by means of HPLC according to Example 1.

Assay [2] shares this test system. Nature of the assay: Substrate specificity of purified nitrile hydratase. Format: biochemical. The procedure: A reaction mixture comprising nitrile hydratase solution (0.695 μmol/min; 0.025 ml), different substrates (0.500 ml) and potassium phosphate buffer (0.1 M; pH 7.0; 0.475 ml) was incubated at 20° C. for 5 to 10 min. The concentrations of the substrates used were in the range from 0.015 to 0.250 M. The reaction was stopped by adding MeOH. The amount of amide produced was determined by means of HPLC.

In assay [3] the test system is Rhodococcus sp. FZ4 nitrile hydratase. As to the kind of experiment: Substrate specificity of nitrile hydratase activity, resting cells. Format: cell-based. The procedure:
(§1) Nitrile hydratase activity was determined by incubating a reaction mixture comprising 3-cyanopyridine (1.0 M; 1.0 ml), potassium phosphate buffer (0.1 M, pH 7.0; 0.5 ml) and cell suspension (0.5 ml) with stirring at 20° C. for 5 min. The reaction was stopped by adding HCI (5 M; 0.1 ml). After filtration (0.2 μm filter) of the reaction mixture, the amount of nicotinamide produced was determined by means of HPLC (Waters Spherisorb 5 μ ODS2 (4.6×150 mm); KH2P04/H3P04 (10 mM; pH 2.8)/acetonitrile=9:1 (v/v); 1 ml/min; 230 nm). The total activity is expressed as μmol of nicotinamide produced/ (min×ml) and the specific activity is expressed as μmol of nicotinamide produced/(min×ml×OD610 nm).
Rhodococcus sp. FZ4 nitrile hydratase activity with respect to different substrates was determined according to Example 1, except that the appropriate substrate was used instead of 3-cyanopyridine and that the HPLC conditions were modified according to the substrate used.

Assay [4] deals with Rhodococcus rhodochrous J1 nitrile hydratase. Nature of the assay: Substrate specificity of nitrile hydratase activity (comparison strain). It is filed as cell-based.
The subject of assay [5] is Rhodococcus sp. FZ4 nitrile hydratase. It is filed as cell-based. The procedure: as §1
(§2) The preculture medium of Table 2 was inoculated with strain Rhodococcus sp. FZ4 (DSM 13597), followed by incubation with shaking at 28° C. for 1 to 2 days. The preculture was transferred into the culture medium of Table 5, which contained different inducers, and cultured with shaking at 28° C. for 3 days. Nitrile hydratase activity was determined according to Example 1. Rhodococcus sp.

In a further assay the test system is Rhodococcus sp. FZ4. Format: cell-based. The procedure: as §2
[6] abbreviates: culture medium with inducer 0.2% (w/v), 28° C., 3 days, substrate 3-cyanopyridine.
Where [7] appears, read: culture medium with inducer 0.2% (w/v), 28° C., 3 days.

We go through 43 compounds from patent publication US7838271B2, “Microbiological method for producing amides” (priority 2001, dated 2010).

Like-named read-outs stand apart in the source and are kept apart here.

Turning to `O[C@H](CS)[C@H](O)CS` (racemic) [Dithiothreitol], in assay [1], the Relative activity was 103%.

As for `c1cnc2c(c1)ccc1cccnc12` [1,10-Phenanthroline], the Relative activity in assay [1] came out at 106%.

As for `c1ccc(-c2ccccn2)nc1` [2,2′-Bipyridyl], the Relative activity in assay [1] was 97.8%.

With `N#Cc1ccccn1` [2-Cyanopyridine], the values for the Relative activity in assay [2], in assay [3] and in assay [4] were 36.7%, 39.3% and 45%, respectively.

As to `OCCS` [2-Mercaptoethanol], the Relative activity in assay [1] was 76.3%.

As for `CC=CCC#N` [3-Pentenenitrile], in assay [5] (setting [6]), the Specific activity was 13.4 μmol/(min × ml × OD610 nm) and the Total activity was found to be 62 µmol/min/mL. This compound also showed a Growth in the assay with Rhodococcus sp. FZ4 (setting [7]) of 4.62 OD610 nm.

Take `N#Cc1ccncc1` [4-Cyanopyridine]: the Relative activity in assay [2] is 92.8%; in assay [3], 98.4%; in assay [4] it was 70%.

Consider `O=C(O)c1cc(SSc2ccc([N+](=O)[O-])c(C(=O)O)c2)ccc1[N+](=O)[O-]` [5,5′-Dithiobis(2-nitrobenzoic acid)], for which, in assay [1], the Relative activity was 93.4%.

Consider `Oc1cccc2cccnc12` [8-Hydroxyquinoline], for which the Relative activity in assay [1] is on record as 97.8%.

For the compound `C=CC(N)=O` [Acrylamide], in assay [5], the Specific activity was 11.7 μmol/(min × ml × OD610 nm) and the Total activity is 60.5 µmol/min/mL. In the assay with Rhodococcus sp. FZ4, this compound showed a Growth of 5.17 OD610 nm.

Consider `C=CC#N` [Acrylonitrile], for which the results for the Relative activity in assay [2], in assay [3] and in assay [4] were 774%, 498% and 478%, respectively. For the same compound, the Specific activity in assay [5] (setting [6]) was 1.81 μmol/(min × ml × OD610 nm). In the assay with Rhodococcus sp. FZ4 (setting [7]), this compound had a Growth of 3.27 OD610 nm.

Turning to `NC(=O)c1ccccc1` [Benzamide], in assay [5] (setting [6]), the Specific activity is 2.12 μmol/(min × ml × OD610 nm) and the Total activity amounted to 8.24 µmol/min/mL. Moreover, the Growth with Rhodococcus sp. FZ4 (setting [7]) worked out at 3.88 OD610 nm.

With `N#Cc1ccccc1` [Benzonitrile], the Relative activity was 75.6% in assay [2], 41.7% in assay [3] and 27% in assay [4]. The Specific activity in assay [5] was 7.17 μmol/(min × ml × OD610 nm). The Total activity in assay [5] amounted to 40.3 µmol/min/mL. In the assay on Rhodococcus sp. FZ4, this compound gave a Growth of 5.62 OD610 nm.

As to `CCCC(N)=O` [Butyramide], in assay [5] (setting [6]), the Specific activity was 73.2 μmol/(min × ml × OD610 nm) and the Total activity is 344 µmol/min/mL. In the assay on Rhodococcus sp. FZ4 (setting [7]), this compound registered a Growth of 4.7 OD610 nm.

In the case of `CCCC#N` [Butyronitrile], the Relative activity in assay [2] came to 578%; in assay [3], 466%; in assay [4], 26%. Also, in assay [5] (setting [6]), the Specific activity is recorded as 58.4 μmol/(min × ml × OD610 nm). For the same compound, the Total activity in assay [5] (setting [6]) turned out to be 307 µmol/min/mL. Moreover, in the assay on Rhodococcus sp. FZ4 (setting [7]), the Growth worked out at 5.26 OD610 nm.

As to `CCCCCC#N` [Caprononitrile], in assay [5] (setting [6]), the Specific activity is reported as 23.0 μmol/(min × ml × OD610 nm) and the Total activity worked out at 104 µmol/min/mL. In addition, in the assay with Rhodococcus sp. FZ4 (setting [7]), the Growth amounted to 4.54 OD610 nm.

`C/C=C/C(N)=O` [Crotonamide]: in assay [5] (setting [6]), the Specific activity is recorded as 59.9 μmol/(min × ml × OD610 nm) and the Total activity was 558 µmol/min/mL. In addition, the Growth in the assay with Rhodococcus sp. FZ4 (setting [7]) is given as 9.32 OD610 nm.

As to `N#CCC(N)=O` [Cyanoacetamide], in assay [5] (setting [6]), the Specific activity is 6.50 μmol/(min × ml × OD610 nm) and the Total activity worked out at 30.9 µmol/min/mL. Further, in the assay with Rhodococcus sp. FZ4 (setting [7]), the Growth came out at 4.75 OD610 nm.

On to `NCCS` [Cysteamine], for which the Relative activity in assay [1] is 99.1%.

Regarding `N[C@@H]1CONC1=O` [D-Cycloserine], the Relative activity in assay [1] turned out to be 86.3%.

Regarding `O=C(O)CN(CCN(CC(=O)O)CC(=O)O)CC(=O)O` [EDTA, Ethylenediaminetetraacetic acid], the Relative activity in assay [1] was 100%.

On to `NO` [Hydroxylamine], for which, in assay [1], the Relative activity is on record as 1.34%.

Turning to `O=C(O)CI` [Iodoacetate], the Relative activity in assay [1] worked out at 96.7%.

As for `CC(C)C(N)=O` [Isobutyramide], in assay [5] (setting [6]), the Specific activity was 109 μmol/(min × ml × OD610 nm) and the Total activity amounted to 387 µmol/min/mL. In the assay with Rhodococcus sp. FZ4 (setting [7]), this compound came in with a Growth of 3.55 OD610 nm.

Regarding `CC(C)C#N` [Isobutyronitrile], in assay [5] (setting [6]), the Specific activity is recorded as 52.1 μmol/(min × ml × OD610 nm) and the Total activity turned out to be 273 µmol/min/mL. Besides, the Growth in the assay with Rhodococcus sp. FZ4 (setting [7]) worked out at 5.24 OD610 nm.

On to `CC(C)CCC#N` [Isocaprononitrile], for which, in assay [5] (setting [6]), the Specific activity is given as 28.5 μmol/(min × ml × OD610 nm) and the Total activity came out at 134 µmol/min/mL. This compound showed a Growth with Rhodococcus sp. FZ4 (setting [7]) of 4.72 OD610 nm.

For `NC(=O)c1ccncc1` [Isonicotinamide], in assay [5] (setting [6]), the Specific activity was 2.17 μmol/(min × ml × OD610 nm) and the Total activity came to 10.9 µmol/min/mL. This compound also returned a Growth with Rhodococcus sp. FZ4 (setting [7]) of 5.03 OD610 nm.

For `CC(C)CC#N` [Isovaleronitrile], in assay [5] (setting [6]), the Specific activity is 23.2 μmol/(min × ml × OD610 nm) and the Total activity was 74.7 µmol/min/mL. Besides, the Growth in the assay with Rhodococcus sp. FZ4 (setting [7]) is recorded as 3.22 OD610 nm.

Regarding `C=C(C)C(N)=O` [Methacrylamide], in assay [2], the Relative activity stood at 1.39%. Moreover, in assay [5] (setting [6]), the Specific activity is on record as 125 μmol/(min × ml × OD610 nm) and the Total activity is 569 µmol/min/mL. Also, the Growth in the assay with Rhodococcus sp. FZ4 (setting [7]) was 4.55 OD610 nm.

For `C=C(C)C#N` [Methacrylonitrile], the results for the Relative activity in assay [3] and in assay [4] were 3.64% and 87%, respectively. Further, in assay [5] (setting [6]), the Specific activity was 71.5 μmol/(min × ml × OD610 nm). The same compound returned a Total activity in assay [5] (setting [6]) of 330 µmol/min/mL. In the assay on Rhodococcus sp. FZ4 (setting [7]), this compound yielded a Growth of 4.61 OD610 nm.

On to `CCN1C(=O)C=CC1=O` [N-Ethylmaleinimide], for which the Relative activity in assay [1] is given as 95.3%.

Regarding `NNc1ccccc1` [Phenylhydrazine], the Relative activity in assay [1] was determined as 84.6%.

In the case of `O=S(=O)(F)Cc1ccccc1` [Phenylmethanesulfonyl fluoride], the Relative activity in assay [1] amounted to 110%.

Regarding `CCC(N)=O` [Propionamide], in assay [5] (setting [6]), the Specific activity is 28.7 μmol/(min × ml × OD610 nm) and the Total activity was 149 µmol/min/mL. Further, the Growth in the assay on Rhodococcus sp. FZ4 (setting [7]) is reported as 5.17 OD610 nm.

Regarding `O=S(=O)(O)c1cc(O)c(O)c(S(=O)(=O)O)c1` [Tiron], the Relative activity in assay [1] worked out at 114%.

Consider `NC(N)=O` [Urea], for which the Relative activity in assay [1] is reported as 106%. For the same compound, in assay [5] (setting [6]), the Specific activity was 0.918 μmol/(min × ml × OD610 nm) and the Total activity was 5.66 µmol/min/mL. In addition, in the assay with Rhodococcus sp. FZ4 (setting [7]), the Growth stood at 6.16 OD610 nm.

Take `CCCCC(N)=O` [Valeramide]: in assay [5] (setting [6]), the Specific activity was 57.5 μmol/(min × ml × OD610 nm) and the Total activity turned out to be 322 µmol/min/mL. Further, the Growth in the assay on Rhodococcus sp. FZ4 (setting [7]) is 5.61 OD610 nm.

As to `CCCCC#N` [Valeronitrile], in assay [5] (setting [6]), the Specific activity is on record as 32.4 μmol/(min × ml × OD610 nm) and the Total activity is 120 µmol/min/mL. For the same compound, in the assay with Rhodococcus sp. FZ4 (setting [7]), the Growth worked out at 3.70 OD610 nm.

In the case of `N#Cc1cccc(Cl)c1` [m-Chlorobenzonitrile], the Relative activity in assay [2] came out at 66.5%; in assay [3] it was 39.3%; in assay [4], 43%.

Regarding `N#Cc1ccccc1Cl` [o-Chlorobenzonitrile], the Relative activity in assay [2] was found to be 0%; in assay [3] it was 0%; in assay [4], 2.8%.

`N#Cc1ccc(Cl)cc1` [p-Chlorobenzonitrile]: the Relative activity in assay [2] was found to be 8.31%; in assay [3], 8.25%; in assay [4], 13%.

As for `O=C(O)c1cc[c]([Hg][Cl])cc1` [p-Chloromercuribenzoic acid], in assay [1], the Relative activity stood at 187%.

Consider `O=C1CCCCCN1` [ε-Caprolactam], for which, in assay [5] (setting [6]), the Specific activity is reported as 9.08 μmol/(min × ml × OD610 nm) and the Total activity came to 40.3 µmol/min/mL. The Growth in the assay with Rhodococcus sp. FZ4 (setting [7]) stood at 4.44 OD610 nm.
